Source: patent US9949976B2, “Kinase inhibitor and use thereof” (Sihuan Pharmaceutical Holdings Group Ltd., priority 2013, dated 2018)

Tests used:
CDK6/D3 = CDK6/D3 (Homo sapiens, UniProt Q00534); assay: In vitro enzyme-inhibiting activity, Caliper Mobility Shift method; assay type: biochemical; conditions: read-out: CDK enzyme-inhibiting activity IC50 CDK6/D3
Protocol: Measurement of activity for inhibiting CDK4/6 kinase by Caliper Mobility Shift method.
50 mL stock solution containing 1000 mM HEPES (pH 7.5), and 50 μL stock solution containing 30% Brij-35, were added to 949.95 mL ultra pure water, and the resultant mixture was mixed homogeneously.
25 mL stock solution containing 4% Coating Reagent #3 (provided with the 12-sipper chip used in Caliper device), 50 mL stock solution containing 1000 mM HEPES (pH 7.5), 50 mL stock solution containing 0.5 M EDTA, and 0.25 mL stock solution containing 30% Brij-35, were added to 374.75 mL ultra pure water, and the resultant mixture was mixed homogeneously.
18 μL CDK6/D3 enzyme solution, and 14 μL stock solution containing 1M DTT were added to 2768 μL 1-fold CDK6 kinase buffer, and the resultant mixture was mixed homogeneously.
23 μL stock solution containing 100 mM ATP, 75 μL stock solution containing 1M MgCl2, and 75 μL FAM-tagged polypeptide 8, were added to 2827 μL 1-fold CDK6 kinase buffer, and the resultant mixture was mixed homogeneously.
DMSO solution containing 10 mM test compound was diluted with DMSO to a solution containing 50 μM test compound (which was used as a stock solution).
1) 5 μL 5-fold test compound solution and 10 μL 2.5-fold kinase solution were added to the corresponding wells in a 384-well plate, and incubated at room temperature for 10 min.
2) To the corresponding wells, 10 μL 2.5-fold polypeptide solution was added to start the enzymatic reaction, and incubation was performed at 28° C. for 5 h.
To the corresponding wells, 25 μL stop solution was added to stop the reaction.
The data was read by Caliper device, the inhibition rate was calculated by the following formula, and curve fitting was carried out by GraphPad5.0 software to get IC50 value. Inhibition rate=(maximal value−sample value)/(maximal value−minimal value)×100, wherein, maximal value: positive control without addition of test compound; minimal value: negative control without addition of enzyme.

[1] = test system: esophageal cancer PDX model; assay: In vivo pharmacodynamics, esophageal cancer PDX model; design: species or system female BALB/c nude mouse; conditions: 150 mg/kg PO QD 21 days
Protocol: Tumor tissues were harvested from tumor-bearing mice of esophageal cancer PDX model, cut into pieces with diameter of 2-4 mm and seeded subcutaneously to right lateral thorax of female BALB/c nude mouse. When the tumors' average volume reached about 150 mm^3, the animals were grouped and administered with a drug. Compound 1 was orally administrated once a day at an amount of 150 mg/kg, for 21 days. The volume of the drug for administration is 0.1 mL/10 g according to animal's body weight.
Tumor volume was measured with vernier calipers twice a week by measuring the major diameter and the minor diameter. The tumor volume is calculated by the following formula: volume=0.5×(major diameter)×(minor diameter)^2. The relative tumor volume (RTV) and the proliferation ratio (T/C) were calculated according to the result of measurement. RTV=Vt/V0, wherein Vt is the average tumor volume on the t day after grouping, and V0 is the average tumor volume on the day of grouping. T/C (%)=RTV of treatment group/RTV of solvent control group×100%.
One-way ANOVA was used for analysing the group statistical analysis of tumor volumes. p<0.05 was regarded as having significant difference.

[2] = test system: Capan-1 human pancreatic cancer cell; assay: In vivo pharmacodynamics, subcutaneous Capan-1 pancreatic cancer xenograft model; design: species or system female BALB/c nude mouse; conditions: Capan-1 xenograft, 100 mg/kg PO QD 21 days
Protocol: Culture medium of Capan-1 pancreatic cancer cell: IMDM culture medium+10% fetal bovine serum+100 U/mL penicillin and 100 μg/mL streptomycin+2 mM glutamine.
Cells were cultured and passaged. Tumor cells in exponential growth phase were used for in vivo tumor seeding. The cells were seeded subcutaneously to right lateral thorax of female BALB/c nude mouse. When tumor grew to a volume of about 150 mm^3, the animals were grouped and administered with a drug. Compound 1 was orally administrated once a day at an amount of 100 mg/kg, for 21 days. The volume of the drug for administration is 0.1 mL/10 g according to animal's body weight.
Tumor volume was measured with vernier calipers twice a week by measuring the major diameter and the minor diameter. The tumor volume is calculated by the following formula: volume=0.5×(major diameter)×[…]. The relative tumor volume (RTV) and the proliferation ratio (T/C) were calculated according to the result of measurement. RTV=Vt/V0, wherein Vt is the average tumor volume on the t day after grouping, and V0 is the average tumor volume on the day of grouping. T/C=RTV of treatment group/RTV of solvent control group×100%.
SPSS statistical software was used for T test on the 2 groups of independent samples, and for group statistical analysis of tumor volumes. p<0.05 was regarded as having significant difference.

[3] = test system: MDA-MB-435S human melanoma cell; assay: BrdU cell proliferation assay (Cell Signaling kit); assay type: cell-based; conditions: 72 h, read-out: In vitro cell-inhibiting activity IC50 MDA-MB-435S
Protocol: (§1) Experimental method: cell proliferation assay was carried out by BrdU method (BrdU cell proliferation assay kit, Cell Signaling Technology Company).
(§2) Preparation of gradient dilution solutions of test compound: the stock solution containing 10 mM test compound was subjected to 4-fold stepwise dilution with DMSO to prepare solutions containing 2.5 mM, 625 μM, 156 μM, 39 μM, 9.8 μM, and 2.5 μM test compound, respectively. 2 μL DMSO-diluted compound was added to 198 μL culture medium containing 10% FBS to prepare […] test compound, wherein the maximum concentration of the test compound was 100 μM, the concentration of DMSO was 1%, and there were 7 concentration gradients.
MDA-MB-435S medium: L-15+10% FBS+0.01 mg/mL insulin
(§3) (1) Cells grown to 80% confluence (in exponential growth phase) were digested with pancreatin, and centrifuged to collect the cells. MDA-MB-435S and U87MG cells were re-suspended in FBS-free culture medium, counted, and seeded to a 96-well plate; MDA-MB-435S cells were seeded at 3000 cells/well/81 μL; U87MG cells were seeded at 4000 cells/well/81 MCF-7 cells were resuspended in culture medium containing 1% FBS, and counted and seeded to a 96-well plate, at 4000 cell/well/82 μL. The plates were placed in a cell incubator at 37° C. […]
(§4) (9) To each well, stop solution (100 μL) was added, and OD value at 450 nm was measured by ELISA instrument […]

[4] = test system: MCF-7 human breast cancer cell; assay: BrdU cell proliferation assay (Cell Signaling kit); assay type: cell-based; conditions: MCF7, 72 h, read-out: In vitro cell-inhibiting activity IC50 MCF-7
Protocol: as §1, §2
MCF-7 medium: DMEM+10% FBS+0.01 mg/mL insulin
as §3, §4

[5] = test system: U87MG human glioblastoma cell; assay: BrdU cell proliferation assay (Cell Signaling kit); assay type: cell-based; conditions: U-87 MG, 72 h, read-out: In vitro cell-inhibiting activity IC50 U87MG
Protocol: as §1, §2
U87MG medium: MEM+10% FBS
as §3, §4

Sequence of CDK6/D3 (Q00534 whole entry): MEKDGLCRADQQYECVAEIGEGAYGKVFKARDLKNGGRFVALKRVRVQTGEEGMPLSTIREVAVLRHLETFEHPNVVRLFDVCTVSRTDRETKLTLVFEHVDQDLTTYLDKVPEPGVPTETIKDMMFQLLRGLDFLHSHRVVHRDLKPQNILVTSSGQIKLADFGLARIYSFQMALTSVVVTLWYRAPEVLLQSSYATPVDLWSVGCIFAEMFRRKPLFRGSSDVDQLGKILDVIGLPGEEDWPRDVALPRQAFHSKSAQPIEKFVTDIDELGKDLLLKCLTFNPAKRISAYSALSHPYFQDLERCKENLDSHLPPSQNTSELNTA
Sequence of CDK6/D3 (P30281 whole entry partner): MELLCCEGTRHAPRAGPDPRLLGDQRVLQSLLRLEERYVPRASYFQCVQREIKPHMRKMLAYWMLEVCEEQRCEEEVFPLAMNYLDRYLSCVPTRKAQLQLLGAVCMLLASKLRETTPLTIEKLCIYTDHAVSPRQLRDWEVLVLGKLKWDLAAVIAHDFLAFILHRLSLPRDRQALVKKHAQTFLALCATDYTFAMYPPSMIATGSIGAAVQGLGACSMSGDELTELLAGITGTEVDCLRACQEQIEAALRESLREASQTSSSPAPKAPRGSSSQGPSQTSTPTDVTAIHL

SMILES	IC50 (CDK6/D3) [µM]	T/C (proliferation ratio) ([1]; 150 mg/kg) [%]	Tumor volume after administration ([1]; average ± standard error) [mm^3]	Tumor volume before administration ([1]; average ± standard error) [mm^3]	T/C [2] [%]	TGI (inhibition ratio of tumor growth) [2] [%]	Tumor volume after administration ([2]; average ± standard error) [mm^3]	Tumor volume before administration ([2]; average ± standard error) [mm^3]	IC50 [3] [µM]	IC50 [4] [µM]	IC50 [5] [µM]
CCN1CCN(Cc2cnc(Nc3cc(-c4cc(F)c5nc(C)n(C(C)C)c5c4)c(F)cn3)nc2)CC1 [Compound 1, 5-((4-ethylpiperazin-1-yl)methyl)-N-(5-fluoro-4-(4-fluoro-1-isopropyl-2-methyl-1H-benzo[d]imidazol-6-yl)pyridin-2-yl)pyrimidin-2-amine]	0.016	29	221.6 ± 27.2	177.7 ± 28.5	31.5	68.5	368 ± 48	150 ± 12	–	–	–
CCN1CCN(Cc2ccc(Nc3ncc(F)c(-c4cc(F)c5nc(C)n(C(C)C)c5c4)n3)nc2)CC1 [LY2835219, reference compound]	–	–	–	–	–	–	–	–	0.2	0.176	0.04
